PubChem BioAssay AID1963837 (Molecular Pharmacology Branch, DTP, NCI, 2024)

System: 843126-344-R-J1-PDC complex spheroid viability
Assay: Anticancer human tumor 843126-344-R-J1-PDC patient-derived melanoma cell line growth inhibition [POLQ]
Conditions: for IC50: curve of first compound; for viability, T/C: stronger effect = lower value
Summary of the method: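 Patient-derived tumour cells were co-cultured with HUVEC and mesenchymal stem cells as multicellular spheroids at 37 °C. They were treated with POLQ inhibitors (novobiocin, ART-558, RP6685) alone or combined with other agents. Top concentrations were at or near clinical Cmax (otherwise 10 microM; SN-38 at 1 microM), decreasing in half-log steps.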
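Throughout, for viability, T/C: spheroids exposed to drugs for seven days before readout.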

Nc1ccn(C2OC(CO)C(O)C2(F)F)c(=O)n1 (configuration not stated) + Cc1cccc(N(C)C(=O)C2C(O)CCN2c2nc(C)cc(C(F)(F)F)c2C#N)c1
IC50 (second compound 0.0316 µM): < 31.6 nM
IC50 (second compound 0.1 µM): < 31.6 nM
IC50 (second compound 0.316 µM): < 31.6 nM
IC50 (second compound 1 µM): < 31.6 nM
IC50 (second compound 3.16 µM): < 31.6 nM
IC50 (second compound 10 µM): < 31.6 nM
viability, T/C (second compound 0.0316 µM, first compound 0.0316 µM): 47.1%
viability, T/C (second compound 0.0316 µM, first compound 0.1 µM): 50.2%
viability, T/C (second compound 0.0316 µM, first compound 0.316 µM): 30.6%
viability, T/C (second compound 0.0316 µM, first compound 1 µM): 45.5%
viability, T/C (second compound 0.0316 µM, first compound 3.16 µM): 42.4%
viability, T/C (second compound 0.0316 µM, first compound 10 µM): 43%
viability, T/C (second compound 0.1 µM, first compound 0.0316 µM): 48.9%
viability, T/C (second compound 0.1 µM, first compound 0.1 µM): 44%
viability, T/C (second compound 0.1 µM, first compound 0.316 µM): 40.9%
viability, T/C (second compound 0.1 µM, first compound 1 µM): 51.4%
viability, T/C (second compound 0.1 µM, first compound 3.16 µM): 44.5%
viability, T/C (second compound 0.1 µM, first compound 10 µM): 32.9%
viability, T/C (second compound 0.316 µM, first compound 0.0316 µM): 42.3%
viability, T/C (second compound 0.316 µM, first compound 0.1 µM): 45.2%
viability, T/C (second compound 0.316 µM, first compound 0.316 µM): 37.4%
viability, T/C (second compound 0.316 µM, first compound 1 µM): 44.8%
viability, T/C (second compound 0.316 µM, first compound 3.16 µM): 43.2%
viability, T/C (second compound 0.316 µM, first compound 10 µM): 38.3%
viability, T/C (second compound 1 µM, first compound 0.0316 µM): 37.9%
viability, T/C (second compound 1 µM, first compound 0.1 µM): 44.5%
viability, T/C (second compound 1 µM, first compound 0.316 µM): 37.6%
viability, T/C (second compound 1 µM, first compound 1 µM): 47.7%
viability, T/C (second compound 1 µM, first compound 3.16 µM): 35.9%
viability, T/C (second compound 1 µM, first compound 10 µM): 41.5%
viability, T/C (second compound 3.16 µM, first compound 0.0316 µM): 38.7%
viability, T/C (second compound 3.16 µM, first compound 0.1 µM): 43.6%
viability, T/C (second compound 3.16 µM, first compound 0.316 µM): 44%
viability, T/C (second compound 3.16 µM, first compound 1 µM): 49.3%
viability, T/C (second compound 3.16 µM, first compound 3.16 µM): 34.9%
viability, T/C (second compound 3.16 µM, first compound 10 µM): 36.6%
viability, T/C (second compound 10 µM, first compound 0.0316 µM): 40.6%
viability, T/C (second compound 10 µM, first compound 0.1 µM): 41.6%
viability, T/C (second compound 10 µM, first compound 0.316 µM): 40.7%
viability, T/C (second compound 10 µM, first compound 1 µM): 45.1%
viability, T/C (second compound 10 µM, first compound 3.16 µM): 43.5%
viability, T/C (second compound 10 µM, first compound 10 µM): 37.8%
